Results taken from patent publication EP1718623B1, “COMPOUNDS AS INHIBITORS OF CELL PROLIFERATION AND VIRAL INFECTIONS” (4SC AG, priority 2004, dated 2005).

What was measured:
Kv1.3 channels = molecular target: T1, Kv1.3 channels (Mus musculus, UniProt P16390); test: Kv1.3 assay, whole-cell patch-clamp in stable transfected L929 cells; assay type: cell-based; settings: c=20 µM; each compound tested on two different cells; steady-state current
T1 construct: expressed in transfected cells; host or cells: L929 cells
T1 sequence (P16390 whole entry): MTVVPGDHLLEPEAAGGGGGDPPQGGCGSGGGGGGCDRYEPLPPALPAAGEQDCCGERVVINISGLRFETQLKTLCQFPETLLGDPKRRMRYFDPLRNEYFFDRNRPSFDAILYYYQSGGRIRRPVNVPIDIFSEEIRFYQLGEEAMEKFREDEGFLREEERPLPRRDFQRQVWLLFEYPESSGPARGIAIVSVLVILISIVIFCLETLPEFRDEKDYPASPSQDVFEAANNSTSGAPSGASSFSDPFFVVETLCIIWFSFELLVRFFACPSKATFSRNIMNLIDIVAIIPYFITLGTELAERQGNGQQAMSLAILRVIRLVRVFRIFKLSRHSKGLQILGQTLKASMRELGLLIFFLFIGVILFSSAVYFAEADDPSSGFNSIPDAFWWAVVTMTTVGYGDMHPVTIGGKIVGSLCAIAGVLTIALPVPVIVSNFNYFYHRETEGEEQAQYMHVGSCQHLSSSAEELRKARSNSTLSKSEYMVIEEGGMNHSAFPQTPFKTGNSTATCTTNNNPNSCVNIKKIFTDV
Experimental: The inhibition of Kv1.3 was measured in stable transfected cell lines expressing mouse Kv1.3 using the patch-clamp technique (Rauer H et al. J Biol Chem Vol.275, No. 2, 1201-1208, 2000), Rauer H Mol Pharmacol,50, 1625-1634, 1996, Rauer H et al. J Pharmacol, 127, 1065-1074, 1999).
Stable transfected L929 cells with Kv1.3 channels were grown in DMEM (Glutamax-I) media with 10% FCS, geneticin 330 µg/ml under 10% CO2 atmosphere.
Whole-cell patch-clamp configuration, with an external bath solution of 160 mM NaCl, 4,5 mM KCl, 1 mM MgCl, 2 mM CaCl2,5 mM HEPES, 10 mM EGTA and NaOH adjusted to pH 7. 4. Internal pipette solution for recording was 155 mM KF, 2 mM MgCl2 , 10 mM HEPES, 10 mM EGTA with KOH adjusted to pH 7.2. Currents were activated by a 200-ms voltage step from a holding potential of -80 to 40 mV every 30 s. Holding potential -80 mV.
Each compound was tested on two different cells. The cell was perfused with external bath solution (black line), then the compound was applied (c=20 µM). The resulting stedy-state current traces are shown as red lines. Example 3, 5, 6, 7, 8 are blockers.

Kv1.3 = Kv1.3 (Homo sapiens, UniProt P22001); settings: blocks Kv1.3 currents; Kath JC et al. 1997; cited from earlier work
Kv1.3, sequence (P22001 whole entry): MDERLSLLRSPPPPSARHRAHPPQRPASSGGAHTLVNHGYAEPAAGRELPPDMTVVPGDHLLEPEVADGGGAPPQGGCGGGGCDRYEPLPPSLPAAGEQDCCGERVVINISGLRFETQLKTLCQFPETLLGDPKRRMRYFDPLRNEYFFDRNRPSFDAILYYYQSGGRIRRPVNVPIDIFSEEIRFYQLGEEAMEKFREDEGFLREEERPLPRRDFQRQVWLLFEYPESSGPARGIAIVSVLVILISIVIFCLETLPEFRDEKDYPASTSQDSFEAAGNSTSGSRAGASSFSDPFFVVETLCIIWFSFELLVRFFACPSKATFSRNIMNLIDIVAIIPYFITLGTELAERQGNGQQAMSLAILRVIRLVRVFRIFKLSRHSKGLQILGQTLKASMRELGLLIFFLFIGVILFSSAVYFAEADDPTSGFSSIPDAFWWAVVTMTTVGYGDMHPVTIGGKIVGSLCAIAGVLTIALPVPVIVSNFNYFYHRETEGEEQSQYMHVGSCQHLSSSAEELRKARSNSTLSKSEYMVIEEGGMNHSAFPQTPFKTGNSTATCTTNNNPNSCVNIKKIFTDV

T-lymphocyte = settings: inhibits T-lymphocyte proliferation; Kath JC et al. 1997; cited from earlier work
[1] = tested on: peripheral blood monocyte (PBMC); test: T Lymphocyte Proliferation Assay (PHA-stimulated PBMC, BrdU incorporation ELISA); assay type: cell-based; settings: Homo sapiens, PBMCs stimulated with 2 µg/ml phytohemoagglutinin, 72 h
Experimental: We used a nonradioactive technique for the measurement of in vitro T-cell proliferation (Messele T et al. Clinical and Diagnostic Laboratory Immunology,687-692,2002).
Peripheral blood mononuclear cells (PBMCs) were isolated from human blood obtained from volunteer donators. PBMCs were isolated by centrifugation in ACCUSPIN tubes using HISTOPAQUE.
PBMCs were stimulated with PHA and cell proliferation was measured with a Roche colorimetric BromUridin incorporation ELISA kit.
Inhibition of stimulated peripheral blood monocyte (PBMC) stimulation
PBMCs were isolated from the blood of healthy volunteers with the help of ACCUSPIN™ System Histopaque®-1077 tubes, washed and resuspended with 10^6 cells/ml in Dulbecco's modified eagles medium, containing 10 % fetal calf serum and 2 mM Glutamine.
The cells were stimulated with 2 µg/ml phytohemoagglutinin in the presence of test compound or blank vehicle for 72 h. 4 h prior to the end of the incubation period, 5-bromo-2'-desoxyuridine (BrdU) was added to label the proliferating cells. After the incubation, the cells were separated by centrifugation and the culture supernatant removed. Incorporated BrdU was quantified with the help of an enzyme-linked immunosorbent assay.
For the determination of the IC50 values (concentration of inhibitor required for 50% inhibition) at least four different inhibitor concentrations were applied. […]

20S proteasome = molecular target: T2, 20S proteasome (Homo sapiens, UniProt P28074); test: Proteasome assay (chymotryptic activity, Suc-LLVT-AMC substrate); assay type: biochemical; settings: 30°C, 20 min
T2 construct: purchased Immatics, Tübingen
Text: Regulation of the immune response is controlled by a variety of signalling pathways such as T-cell or TNF receptor signalling (Chen G et al. Scienc,296 1634-1640,2002). To further characterize targets of compounds which we found active in the T-cell proliferation assay, we tested the compounds on a variety of targets involved in such pathways. Compounds described here are inhibitors of T-lymphocyte proliferation were active on three molecular targets: Kv1.3 ion channels and Inosine Monophosphate Dehydrogenase (IMPDH) and the human proteasome. The compounds described may act on one of these targets specifically or on several targets simultaneously.
The chymotryptic activity of the 20S proteasome (Immatics, Tübingen) was determined using a Tecan Ultra plate reader and Suc-LLVT-AMC as substrate (Bachem). […]

In the case of O=C(Nc1ccc(C2=N[C@H](Cc3ccccc3)CO2)cc1)Nc1ccc(S(=O)(=O)NCc2cc(F)c(F)c(F)c2)cc1 [Example 3, 4-{3-[4-(4-(R)-Benzyl-4,5-dihydro-oxazol-2-yl)-phenyl]- -ureido}-N-(3,4,5-trifluorobenzyl)-benzenesulfonamide], the Kv1.3 block (Kv1.3 channels) is reported as “blockers”.
In the case of “noxiustoxin (TIINVKCTSPKQCSKPCKELYGSSAGAKCMNGKCKCYNN; UniProt P08815 1-39, looked up)”, the IC50 (Kv1.3) is listed as 0.2 nM and the IC50 (T-lymphocyte) is listed as 8 nM.
O=C(Nc1ccc(S(=O)(=O)NCc2cc(F)c(F)c(F)c2)cc1)Nc1cccc(C2=N[C@@H](Cc3ccccc3)CO2)c1 [Example 22, 4-{3-[3-(4-(S)-Benzyl-4,5-dihydro-oxazol-2-yl)-phenyl]-ureido}-N-(3,4,5-trifluorobenzyl)-benzenesulfonamide] gave an IC50 [1] of under 5000 nM.
Work on O=C(Nc1ccc(C2=N[C@H](c3ccccc3)CO2)cc1)Nc1ccc(S(=O)(=O)NCc2cc(F)c(F)c(F)c2)cc1 [Example 1, 4-{3-[4-(4-(R)-Phenyl-4,5-dihydro-oxazol-2-yl)-phenyl]-ureido}-N-(3,4,5-trifluorobenzyl)-benzenesulfonamide] yielded an IC50 (20S proteasome) of under 5000 nM and an IC50 [1] of under 5000 nM.
